Tests used:
[1] = system: PGHS-2 in activated RAW264.7 macrophages; assay: Inhibition of PGHS-2 in activated RAW264.7 macrophages; format: cell-based, murine; conditions: RAW 264.7, LPS and γ-interferon; for inhibitory effect on PGHS-2 in activated macrophages compared with aspirin: FIGS. 14 and 15, aspirin 100 μM; for inhibition of cyclooxygenase activity in activated macrophages: FIG. 16
Protocol: RAW 264.7 cells were activated for 7 hours at 37° C. in serum free DMEM with LPS (500 ng/mL) and γ-interferon (10 U/mL).
RAW 264.7 cells were activated for 7 hours at 37° C. in serum free DMEM with LPS (500 ng/mL) and γ-interferon (10 U/mL). […] The cyclooxygenase reaction was initiated by adding [1-^14 C]-arachidonic acid (20 μM) for 15 min at 37° C.
The murine macrophage cell line RAW264.7 were seeded overnight for 30% confluency the following morning. Overnight DMEM and fetal bovine serum (FBS) was removed and 2 mL DMEM containing 1.5% FBS±500 ng/mL LPS and 10 units/mL interferon-γ were added for 7.5 hours at 37° C. […] Arachidonic acid metabolism was measured by adding 20 μM 14C-AA for 15 min at room temperature. Aliquots (200 μL) were removed into termination solution and run on TLC plates. In the case of 2-acetoxythioanisole (2), following 8 hours of activation, 500 μM 2 was added for the next 3.5 hours. After 11.5 hours of activation, 20 μM [1-^14 C]arachidonic acid was incubated with the cells for 20 minutes at room temperature, and total products were determined by TLC.

human PGHS-2 = molecular target: T1, human PGHS-2 (Homo sapiens, UniProt P35354); assay: Time- and concentration-dependent inhibition of human PGHS-2, TLC assay (3 h preincubation); format: biochemical; conditions: for IC50 / IC50 (PGHS-1)/IC50 (PGHS-2): Table 2; for IC50: PGHS-2 88 nM; for IC50 (PGHS-1)/IC50 (PGHS-2): selectivity ratio, 180 min
T1 construct: made in house; host or cells: insect cells (baculovirus vectors)
T1 sequence (P35354 18-604): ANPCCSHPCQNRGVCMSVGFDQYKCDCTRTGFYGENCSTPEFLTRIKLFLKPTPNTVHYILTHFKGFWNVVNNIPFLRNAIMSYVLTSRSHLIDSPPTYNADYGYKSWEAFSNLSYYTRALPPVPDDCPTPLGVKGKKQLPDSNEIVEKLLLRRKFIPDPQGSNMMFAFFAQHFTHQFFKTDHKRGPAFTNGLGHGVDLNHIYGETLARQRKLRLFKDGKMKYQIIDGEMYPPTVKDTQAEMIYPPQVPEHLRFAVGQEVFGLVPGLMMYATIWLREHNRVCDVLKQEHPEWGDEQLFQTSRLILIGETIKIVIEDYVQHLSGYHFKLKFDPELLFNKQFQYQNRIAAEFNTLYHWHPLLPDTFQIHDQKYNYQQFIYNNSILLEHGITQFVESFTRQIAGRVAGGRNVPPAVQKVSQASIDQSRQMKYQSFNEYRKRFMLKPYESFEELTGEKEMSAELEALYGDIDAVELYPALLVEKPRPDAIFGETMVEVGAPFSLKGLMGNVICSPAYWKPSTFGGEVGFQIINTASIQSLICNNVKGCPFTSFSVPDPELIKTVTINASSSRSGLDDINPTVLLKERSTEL
Protocol: (§1) Cyclooxygenase activity of ovine PGHS-1 (22 nM) or human PGHS-2 (88 nM) was assayed by TLC. Reaction mixtures of 200 μL consisted of hematin-reconstituted protein in 100 mM Tris-HCl, pH 8.0, 500 μM phenol, and [1-^14 C]arachidonic acid (50 μM, 57 mCi/mmol). For the time-dependent inhibition assay, hematin-reconstituted PGHS-1 (22 nM) or PGHS-2 (88 nM) was preincubated at room temperature for 2 hours and then at 0° C. for 1 hour with varying concentrations of inhibitor in DMSO followed by the addition of [1-^14 C]arachidonic acid (50 μM) for 30 seconds at 37° C. Reactions were terminated by solvent extraction in diethyl ether/methanol/1 M citrate, pH 4.0 (30:4:1). The organic phase was spotted on a TLC plate (Amersham Corp.). The plate was developed with ethyl acetate/methylene chloride/glacial acetic acid (75:25:1) at 4° C. Radiolabeled products were quantitated with a radioactivity scanner (Bioscan, Inc., Washington, D.C.).
(§2) conducted at room temperature for 3 hours. The cyclooxygenase reaction was
(§3) initiated by the addition of 14C-arachidonic acid (50 μM) to the
(§4) incubation mixtures at 37 C for 30 seconds.
(§5) conducted at room temperature for 3 hours. The cyclooygenase reaction was
(§6) initiated by the addition of ^14 C-arachidonic acid ([…]) to the
(§7) incubation mixtures at 37° C. for 30 sec.

holoPGHS-2 = assay: pH dependence of time-dependent inhibition of cyclooxygenase activity of holoPGHS-2, oxygen uptake assay; format: biochemical, human
Protocol: ApoPGHS-2 (5 μM, 1.62 μg/μL) in 100 mM sodium phosphate buffer of pH 6, 7, 8, and 9 was reconstituted with 2 equivalents of hematin. Compound 2 (1000-fold excess) in DMSO was added to the reaction mixture. Periodically, 0.16 μM enzyme aliquots (final inhibitor concentration ~178 μM) were analyzed for remaining cyclooxygenase activity. Open circles, cyclooxygenase activity of holoPGHS-2 treated with 2 at pH 6; closed circles, cyclooxygenase activity of holoPGHS-2+2 at pH 7; open squares, cyclooxygenase activity of holoPGHS-2+2 at pH 8; closed squares, cyclooxygenase activity of holoPGHS-2+2 at pH 9. Control experiments in the absence of inhibitor remained linear throughout the assay period.
ApoPGHS-2 (5 μM, 1.62 μg/μL) in 100 mM sodium phosphate buffer of pH 6, 7, 8, and 9 was reconstituted with 2 equivalents of hematin. Compound 54 (181 μM) in DMSO was added to the reaction mixture. Periodically, 0.16 μM enzyme aliquots (final inhibitor concentration ~6 μM) were analyzed for remaining cyclooxygenase activity. […]
Oxygen consumption was measured at 37° C. with a Gilson model 5/6 oxygraph (Gilson Medical Electronics, Inc., Middleton, Wis.) equipped with a clark electrode and a thermostated cuvette. […] Oxygen uptake was initiated by the addition of 100 μM sodium arachidonate, and the initial reaction velocity was determined from the linear portion of the oxygen uptake curve. […]

apo- and holoPGHS-2 = assay: Inactivation of cyclooxygenase activity of apo- and holoPGHS-2 and reactivation by hydroxylamine; format: biochemical, human; conditions: 10 mM inhibitor, pH 8, 37° C.
Protocol: Apo or HoloPGHS-2 ([…]) was inactivated with a 1000-fold excess of 2-acetoxythioanisole (2) at 22.5° C. in 100 mM Tris-HCl buffer, pH 8 containing […] phenol for the indicated time period, and then hydroxylamine (80 mM) in 10 mM Tris-HCl buffer, pH 7.5 was added as indicated by the arrow. Periodic 0.16 μM aliquots of holoPGHS-2 (open circles), holoPGHS-2+2-acetoxythioanisole (open squares), apoPGHS-2 (closed circles), apoPGHS-2+2-acetoxythioanisole (closed squares) were analyzed for remaining cyclooxygenase activity.
Oxygen consumption was measured at 37° C. with a Gilson model 5/6 oxygraph (Gilson Medical Electronics, Inc., Middleton, Wis.) equipped with a clark electrode and a thermostated cuvette. […] Oxygen uptake was initiated by the addition of 100 μM sodium arachidonate, and the initial reaction velocity was determined from the linear portion of the oxygen uptake curve.
ApoPGHS-2 (5 μM) or apoPGHS-2 (5 μM), reconstituted with 2 equivalents of hematin in 100 mM Tris-HCl, pH 8 at 37° C. containing 500 μM phenol was treated with 2-acetoxy-1-thioanisole (10 mM). Periodically, 0.16 μM enzyme aliquots were analyzed for remaining cyclooxygenase activity as described earlier. […] Hydroxylamine hydrochloride (80 mM) in 10 mM Tris-HCl, pH 7.5 was then added to the incubation mixture and 0.16 μM enzyme aliquots were analyzed for reactivation of the inhibited cyclooxygenase-2. […]

ovine PGHS-1 [2] = molecular target: T2, ovine PGHS-1 (Ovis aries, UniProt P05979); assay: Time- and concentration-dependent inhibition of ovine PGHS-1, TLC assay (3 h preincubation); format: biochemical; conditions: Table 2; PGHS-1 22 nM, 3 h at room temperature
T2 construct: PGHS-1 was purified from sheep seminal vesicles as described earlier; tissue Oxford Biomedical Research, Inc. (supplier of the sheep seminal vesicles); host or cells: sheep seminal vesicles
T2 sequence (P05979 25-600): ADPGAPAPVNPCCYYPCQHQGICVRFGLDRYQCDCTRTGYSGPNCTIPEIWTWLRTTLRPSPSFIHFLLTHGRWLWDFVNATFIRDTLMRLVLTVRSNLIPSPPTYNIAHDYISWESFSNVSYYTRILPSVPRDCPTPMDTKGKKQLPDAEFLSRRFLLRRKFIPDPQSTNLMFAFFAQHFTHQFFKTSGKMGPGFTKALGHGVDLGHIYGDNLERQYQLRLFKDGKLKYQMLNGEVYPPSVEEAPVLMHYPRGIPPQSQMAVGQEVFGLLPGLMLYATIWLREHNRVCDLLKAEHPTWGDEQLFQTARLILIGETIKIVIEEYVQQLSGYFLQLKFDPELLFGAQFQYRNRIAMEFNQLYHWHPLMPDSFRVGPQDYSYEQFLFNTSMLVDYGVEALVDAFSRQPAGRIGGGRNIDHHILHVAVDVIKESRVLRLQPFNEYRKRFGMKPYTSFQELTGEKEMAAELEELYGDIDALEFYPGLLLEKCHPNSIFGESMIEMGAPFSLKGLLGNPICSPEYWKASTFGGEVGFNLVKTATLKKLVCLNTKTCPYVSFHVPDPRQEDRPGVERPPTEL
Protocol: as §1, §2, §3, §4, §5, §6, §7

apoPGHS-1 = assay: Inhibition of cyclooxygenase activity of apoPGHS-1 and reactivation by hydroxylamine; format: biochemical, ovine
ovine PGHS-1 [3] = molecular target: T2, ovine PGHS-1; assay: Time- and concentration-dependent inhibition of ovine PGHS-1, TLC assay (3 h preincubation); format: biochemical; conditions: FIG. 5; 1 h at room temperature

| SMILES | inhibitory effect on PGHS-2 in activated macrophages compared with aspirin [1] | IC50 (human PGHS-2; 3 h at room temperature) [µM] | IC50 (PGHS-1)/IC50 (PGHS-2) (human PGHS-2) | inhibition of cyclooxygenase activity in activated macrophages [1] | IC50 (ovine PGHS-1 [2]) [µM] | further results |
| --- | --- | --- | --- | --- | --- | --- |
| CSc1ccccc1OC(C)=O [Compound 2, 2-acetoxythioanisole] | greater inhibitory effect on PGHS-2 in activated macrophages than aspirin | 250 | > 100 |  |  | inhibition of cyclooxygenase activity of holoPGHS-2 (holoPGHS-2; FIG. 7, pH 9, 10 mM inhibitor): greatly inhibited; inhibition of cyclooxygenase activity (apo- and holoPGHS-2): greater than 70% |
| CCCCCCCSc1ccccc1OC(C)=O [Compound 54, 2-Acetoxyphenylheptyl sulfide] | greater inhibitory effect on PGHS-2 in activated macrophages than aspirin | 2 | 3 | greatly inhibited | 6 | inhibition of cyclooxygenase activity of human holoPGHS-2 (in words) (human PGHS-2; FIG. 9, 3 h at room temperature): greatly inhibited; pH dependency of inhibition of cyclooxygenase activity of human holoPGHS-2 (holoPGHS-2; FIG. 10, pH 6, 7, 8, 9, 181 μM): greatest inhibition seen at pH 9 |
| CCCCC#CCSc1ccccc1OC(C)=O [Compound 87, 2-Acetoxyphenyl-hept-2-ynyl sulfide] |  |  | 21 | greatly inhibited | > 17 | inhibition of cyclooxygenase activity of human holoPGHS-2 (in words) (human PGHS-2; FIGS. 12 and 13, 1-16 μM): greatly inhibited |
| CC(=O)n1ccnc1 [N-acetylimidazole] |  |  |  |  |  | inhibition of cyclooxygenase activity of apoPGHS-1 (apoPGHS-1): inhibits the cyclooxygenase activity of apoPGHS-1; reactivation after addition of hydroxylamine (apoPGHS-1; hydroxylamine added): the enzyme activity is regenerated |
| CC(=O)Oc1ccccc1C(=O)O [aspirin] |  |  |  |  |  | inhibitory effect on PGHS-1 versus PGHS-2 (ovine PGHS-1 [3]): greater inhibitory effect on PGHS-1 than PGHS-2 |
